Measured values from US10322132B2, “Prevention or treatment of uratic or gouty diseases” (SHANTON PHARMA CO., LTD., priority 2015, dated 2019).

What was measured:
MSU-induced air sacs = experiment: Air sacculitis (MSU-induced air sacs), leukocyte counts in lavage fluid; details: for Leukocyte count: Basophil / Leukocyte count: Eosinocyte / Leukocyte count: Lymphocyte / Leukocyte count: Monocyte / Leukocyte count: Neutrophil / Total cell count: lavage fluid 4 h after MSU, mean ± SEM, n = 8;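 for all read-outs here: male Wistar rats with dorsal air sacs, dosed 1 h before injecting MSU crystal suspension, compared with saline-injected blank and vehicle-treated model groups, cytological analysis of lavage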
Experimental: (§1) The sterile MSU crystals were added to 5 mL of sterilized saline before injected into air sacs.
(§2) Male Wistar rats were raised for one week and then randomly divided into 6 groups. Animals were anesthetized and then injected with 24 mL of sterile air in their backs. The animals received the second injection of air 4 days later. On day 7, the rats in the blank group and model group were intragastrically administered with the solvent at a dose of 10 mL/kg; the rats in the dexamethasone group were administered by intraperitoneal injection with dexamethasone at a dose of 5 mg/kg; the rats in the colchicine group were intragastrically administered with colchicine at a dose of 5 mg/kg. […] One hour after administration, the rats in the blank group were injected with 5 mL of saline into the air sacs at the back, and the rats from other groups were injected with 5 mL of MSU crystal suspension (1 mg/mL) into the air sacs at the back. Four hours later, the lavage fluid in the air sacs was taken, and a portion of the lavage fluid was used for cytological analysis. The remaining was centrifuged at 8000 rpm for 15 min, and the supernatant was stored at −80° C. for the detection of cytokines IL-1β, IL-6, KC and TNFα. The test results were shown as mean±SEM and statistically analyzed by t-test.

IL-1β, IL-6, KC and TNFα = experiment: Air sacculitis (MSU-induced air sacs), cytokines in lavage fluid; details: for IL-1β / KC / TNF-α: lavage fluid supernatant, mean, n = 8
Experimental: as §1, §2

CCCCCn1c(=O)[nH]c(=O)c2[nH]c(Cl)nc21 [Compound A, 8-chloro-3-pentyl-3,7-dihydro-1H-purine-2,6-dione]
Leukocyte count: Basophil (MSU-induced air sacs; 30 mg/kg intragastric): 0 ± 0 *10^4/air sacs
Leukocyte count: Eosinocyte (MSU-induced air sacs; 30 mg/kg intragastric): 5.8 ± 1.2 *10^4/air sacs
Leukocyte count: Lymphocyte (MSU-induced air sacs; 30 mg/kg intragastric): 8.1 ± 1.2 *10^4/air sacs
Leukocyte count: Monocyte (MSU-induced air sacs; 30 mg/kg intragastric): 174.2 ± 35.4 *10^4/air sacs
Leukocyte count: Neutrophil (MSU-induced air sacs; 30 mg/kg intragastric): 18.6 ± 6.4^$ *10^4/air sacs
Total cell count (MSU-induced air sacs; 30 mg/kg intragastric): 206.8 ± 42.9^$ *10^4/air sacs
Leukocyte count: Basophil (MSU-induced air sacs; 100 mg/kg intragastric): 0 ± 0 *10^4/air sacs
Leukocyte count: Eosinocyte (MSU-induced air sacs; 100 mg/kg intragastric): 4.6 ± 1.4 *10^4/air sacs
Leukocyte count: Lymphocyte (MSU-induced air sacs; 100 mg/kg intragastric): 8.0 ± 1.9 *10^4/air sacs
Leukocyte count: Monocyte (MSU-induced air sacs; 100 mg/kg intragastric): 151.4 ± 24.1 *10^4/air sacs
Leukocyte count: Neutrophil (MSU-induced air sacs; 100 mg/kg intragastric): 12.2 ± 3.4^$ *10^4/air sacs
Total cell count (MSU-induced air sacs; 100 mg/kg intragastric): 176.2 ± 29.6^$$$ *10^4/air sacs
effect on increase of the total cell count and neutrophil count in the lavage fluid caused by MSU (in words) (MSU-induced air sacs; compound A at the oral doses of 30 mg/kg and 100 mg/kg): significantly inhibit
IL-1β (IL-1β, IL-6, KC and TNFα; 30 mg/kg intragastric): 79.2 pg/mL
KC (IL-1β, IL-6, KC and TNFα; 30 mg/kg intragastric): 8742.1 pg/mL
TNF-α (IL-1β, IL-6, KC and TNFα; 30 mg/kg intragastric): 29.7 pg/mL
IL-1β (IL-1β, IL-6, KC and TNFα; 100 mg/kg intragastric): 88.6 pg/mL
KC (IL-1β, IL-6, KC and TNFα; 100 mg/kg intragastric): 5757.4 pg/mL
TNF-α (IL-1β, IL-6, KC and TNFα; 100 mg/kg intragastric): 18.7 pg/mL
effect on increase of IL-6, KC and TNFα (in words) (IL-1β, IL-6, KC and TNFα; oral dose of 100 mg/kg): significantly inhibit
